Experimental findings from PubChem BioAssay (NCI) are described below.

Structures are written as SMILES. Values joined by “and” are separate entries in the source; they are usually repeats but may differ in a detail not shown here. Identical values can stand only once.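 All cell lines were grown in 96-well plates and treated with compound for 48 hours. GI50 marks 50% less growth. TGI: concentration producing complete growth inhibition.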 Some results are limits rather than exact numbers.

Among the test systems are A498 renal; HS 578T breast; SF-295 CNS; NCI-H226 lung; SF-268 CNS; SNB-75 CNS; HT29 colon; SF-539 CNS.
Common to all, as to experiment: NCI anticancer screen, dose series, 48 h

Regarding `C/C1=C\C/C=C(\C)[C@H]2CC(CC/C(C)=C/CC1)[C@](C)(C=O)O2`, the GI50 is 92.2 µM in the assay on A498 renal; more than 100 µM with HS 578T breast; 28.9 µM in the assay on SF-295 CNS; more than 100 µM with NCI-H226 lung; more than 100 µM with SF-268 CNS; more than 100 µM in the assay on SNB-75 CNS. For the same compound, the GI50 with HT29 colon and in the assay with SF-539 CNS was more than 100 µM throughout. In addition, the TGI was more than 100 µM in the assay on A498 renal; more than 100 µM in the assay on HS 578T breast; 96.2 µM with SF-295 CNS; more than 100 µM in the assay with NCI-H226 lung; more than 100 µM with SF-268 CNS; more than 100 µM with SNB-75 CNS. Besides, the TGI in the assay with HT29 colon and with SF-539 CNS was more than 100 µM throughout.

For the compound `NCCP(=O)(O)O`, the TGI in the assay with A498 renal, in the assay on HS 578T breast, with SF-295 CNS, in the assay with NCI-H226 lung, with SF-268 CNS and in the assay on SNB-75 CNS was more than 100 µM in each case. The TGI in the assay with HT29 colon was more than 100 µM.

Take `NC(Cc1ccnnc1)C(=O)O` (centres undefined): the TGI in the assay with A498 renal, with HS 578T breast, in the assay on SF-295 CNS, with NCI-H226 lung, in the assay with SF-268 CNS and with SNB-75 CNS was more than 100 µM throughout. Further, the TGI in the assay on HT29 colon and in the assay with SF-539 CNS was more than 100 µM throughout.

In the case of `CCc1c(O)c2c(c(O)c1C(C)=O)C(=O)c1c(cc(O)c(C(=O)O)c1C(=O)O)C2=O`, the TGI in the assay on A498 renal, in the assay with HS 578T breast, in the assay on SF-295 CNS, with NCI-H226 lung, in the assay with SF-268 CNS and in the assay with SNB-75 CNS was more than 100 µM each time. For the same compound, the TGI in the assay on HT29 colon and in the assay on SF-539 CNS was more than 100 µM each time.

Turning to `N#C/C(N)=C(\C#N)N=Cc1csc2ccccc12`, the GI50 in the assay with HS 578T breast is 13.1 µM; in the assay with SF-295 CNS, 51.5 µM; in the assay with NCI-H226 lung it was 19.4 µM; in the assay on SNB-75 CNS it was 12.5 µM; in the assay with HT29 colon, 22.2 µM; with SF-539 CNS it was 20.1 µM. In addition, the TGI with HS 578T breast was 58.9 µM; with SF-295 CNS, more than 100 µM; in the assay with NCI-H226 lung, 76.3 µM; in the assay with SNB-75 CNS, 31.2 µM; in the assay with HT29 colon, more than 100 µM; with SF-539 CNS, 50.9 µM.

As for `Cc1cc(C)cc(Nc2ccc([N+](=O)[O-])c(NCCN3CCOCC3)n2)c1`, the GI50 is 0.000606 µM in the assay with A498 renal; 0.00306 µM and 0.0165 µM in the assay on HS 578T breast; 0.000446 µM in the assay on SF-295 CNS; 0.0365 µM and 0.0614 µM in the assay on NCI-H226 lung; 0.00219 µM and 0.0188 µM in the assay with HT29 colon; 0.0016 µM with SF-539 CNS. Further, the TGI is 0.00915 µM and 0.0676 µM with A498 renal; 48.4 µM with HS 578T breast; 25.8 µM in the assay on SF-295 CNS; more than 100 µM in the assay with NCI-H226 lung; 85.2 µM in the assay on SF-268 CNS; more than 100 µM in the assay on HT29 colon. For the same compound, in the assay with SF-539 CNS, the TGI was 0.00587 µM and 0.0564 µM.

On to `CNC(=O)OC1C(O[C@H]2C[C@H]3[C@@H]4CC=C5C[C@@H](O)CC[C@]5(C)[C@H]4CC[C@]3(C)[C@H]2[C@H](C)C(=O)CCC(C)C)OCC(O)C1OC1OCC(O)C(O)C1OC(=O)c1ccc(OC)cc1` (some centres undefined), for which the GI50 in the assay with A498 renal was 0.00446 µM; in the assay with HS 578T breast, less than 0.00275 µM; in the assay on SF-295 CNS, less than 0.00275 µM; in the assay on SF-268 CNS, 0.0226 µM; with SNB-75 CNS it was 0.00628 µM; in the assay on HT29 colon it was 0.0631 µM. Besides, the GI50 in the assay with SF-539 CNS is less than 0.00275 µM. The TGI in the assay with A498 renal is 0.0205 µM; in the assay on HS 578T breast, 0.0584 µM; in the assay on SF-295 CNS it was 0.00628 µM; with SF-268 CNS, 2.78 µM; in the assay on SNB-75 CNS it was 4.97 µM; in the assay with HT29 colon, 4.92 µM. The TGI in the assay with SF-539 CNS is 0.0185 µM.

Consider `O=C(CNc1ncco1)Nc1ccc(S(=O)(=O)c2ccc(NC(=O)CNc3ncco3)cc2)cc1`, for which the GI50 is 21.8 µM in the assay on A498 renal; 14.3 µM with HS 578T breast; 2.32 µM in the assay on NCI-H226 lung; 1.53 µM in the assay with SF-268 CNS; 6.04 µM with SNB-75 CNS; 1.7 µM in the assay with SF-539 CNS. Moreover, the TGI is 62.7 µM in the assay on A498 renal; more than 100 µM in the assay on HS 578T breast; 7.09 µM with NCI-H226 lung; 4.54 µM in the assay with SF-268 CNS; 20.7 µM in the assay with SNB-75 CNS; 3.9 µM in the assay with SF-539 CNS.

Take `OCC#Cc1ccccc1C#Cc1ccc(C#Cc2ccccc2C#CCO)s1`: the GI50 with HS 578T breast was 22.3 µM; in the assay on SF-295 CNS, 15.1 µM; with SF-268 CNS, 20.6 µM; in the assay with SNB-75 CNS, 48.1 µM; in the assay with SF-539 CNS it was 18.1 µM. Besides, the TGI with HS 578T breast is 58.1 µM; in the assay on SF-295 CNS it was 29.2 µM; with SF-268 CNS it was 44.5 µM; in the assay with SNB-75 CNS, 78.7 µM; with SF-539 CNS, 34.2 µM.

As to `Oc1c(I)cc(-c2nc3ccccc3s2)cc1CN(Cc1ccccn1)Cc1ccccn1`, the GI50 in the assay on A498 renal was 0.484 µM; in the assay with HS 578T breast, 1.61 µM; in the assay with SF-295 CNS, 0.35 µM; in the assay with NCI-H226 lung, 0.269 µM; with SF-268 CNS, 0.301 µM; in the assay with HT29 colon it was 0.668 µM. Also, the GI50 with SF-539 CNS was 0.246 µM. For the same compound, the TGI was 4.81 µM in the assay with A498 renal; 93 µM with HS 578T breast; more than 100 µM in the assay on SF-295 CNS; 3.16 µM in the assay on NCI-H226 lung; 95.2 µM in the assay with SF-268 CNS; 27.6 µM in the assay with HT29 colon. This compound also gave a TGI in the assay on SF-539 CNS of 0.903 µM.

`O=S(=O)(NCCNc1cc(-c2cn(-c3ccccc3)nc2-c2cccc(O)c2)ccn1)c1ccc(Cl)cc1`: the GI50 is 2.33 µM with A498 renal; 3 µM with HS 578T breast; 4.02 µM in the assay on NCI-H226 lung; 2.51 µM in the assay on SF-268 CNS; 3.28 µM with SNB-75 CNS; 2.24 µM in the assay on HT29 colon. In the assay on SF-539 CNS, the GI50 was 2.08 µM. Also, the TGI in the assay with A498 renal was 9.52 µM; with HS 578T breast, more than 100 µM; in the assay with NCI-H226 lung, 21.2 µM; with SF-268 CNS it was 8.94 µM; with SNB-75 CNS it was 20.4 µM; with HT29 colon, 5.21 µM. Also, in the assay on SF-539 CNS, the TGI turned out to be 5.3 µM.

On to `c1ccc2cc(Cn3c[n+](Cc4ccc5ccccc5c4)c4ccccc43)ccc2c1`, for which the GI50 with A498 renal is 1.08 µM; in the assay on SF-268 CNS it was 1.31 µM; with SF-539 CNS it was 1.59 µM. The TGI worked out at 2.5 µM in the assay with A498 renal, 2.72 µM with SF-268 CNS and 3 µM in the assay on SF-539 CNS.
